Measurements from patent US9561249B2, “Pharmaceutical formulations of nitrite and uses thereof” (TheraVasc Inc., priority 2013, dated 2017).
Like-named read-outs stand apart in the source and are kept apart here.

Columns and labels:
[1] = tested on: subjects with PAD
Experimental: A resting 12-lead ECG printout with the subject in supine position was obtained at the time points listed in Table 1-Schedule of Assessments. All ECGs were assessed by the PI or qualified designee for clinical significance of any abnormalities or changes and documented on the ECG source document. Any clinically significant abnormalities that occured after the first dose of sodium nitrite was recorded as AEs on the eCRF. The 12-lead ECG was obtained immediately following vitals, with the exception of the Visit 1 Randomization day ECG which was collected prior to dosing.

[2] = tested on: subjects with PAD; remark: listed apart in the source
Source text: An individual subject was withdrawn at the discretion of the responsible investigator and the site study team for the reasons listed below as well as for other safety reasons that may not be listed. In the event one or more subjects were withdrawn, additional subjects were enrolled to ensure an adequate number of subjects complete the cohort. Specific reasons for an individual subject to withdraw included but was not limited to: • Subjects with a pattern of severe adverse events in any SOC, or cardiac monitoring findings as determined by the investigator and/or the sponsor. • Subjects with methemoglobin value 15% on any one occasion during study participation. • Subjects with normal baseline blood pressure who experienced any of the following: an increase in blood pressure to 160 mm Hg systolic and/or 90 mmHg diastolic that persists over 24 hours, an increase from baseline blood pressure of 30 mm Hg systolic and/or 15 mm Hg diastolic that persists over 24 hours, any symptomatic increase in blood pressure. • Subjects with stable elevated blood pressure at baseline who experienced any of the following: an increase in blood pressure to 180 mm Hg systolic and/or 100 mmHg diastolic that persists over 24 hours, an increase from baseline blood pressure of 20 mm Hg systolic and/or 10 mm Hg diastolic that persists over 24 hours, any symptomatic increase in blood pressure. • Subjects who experienced a decrease from baseline blood pressure of 20 mm Hg systolic with or without an increase of 10 beats per minute (BPM) pulse and the presence of symptoms.
The withdrawal criteria allowed a subject to withdraw from the study at any time at his/her own request. The subject may also have been withdrawn at the Investigator's request if it was the Investigator's opinion that it was not in the subject's best interest to continue in the study. The subject was withdrawn if he or she met stopping criteria described above. In the event a subject was withdrawn from the study for any reason, the subject was followed-up with reasonable effort made to determine the reason for their withdrawal from the study and an ET visit as described above. Telephone calls, certified letters and offers of transportation assistance were considered reasonable effort.

[3] = tested on: subjects with PAD; conditions: oral BID for 10 weeks vs placebo
Experimental: Quality of life was measured by two questionnaires: WIQ and RAND 36. The two questionnaires were administered in the same sequence: WIQ first, followed by the RAND 36. The WIQ was a disease-specific instrument that measures community-based walking. The questionnaire consisted of four subscales (pain severity, distance, speed, and stairs). The WIQ was verbally administered to the subject by the Investigator, or designee. The RAND 36 was an instrument that measured general health issues. Study staff directed subjects to complete the RAND 36 on their own. […] No family members or other individuals were allowed to answer questions or complete the questionnaire for the subject. All questionnaires were completed directly on the written source document pages. The study coordinator reviewed all questionnaires to ensure that there was only one response to each question, each question has been answered and any necessary corrections have been initialed and dated by the Investigator (or designee) or subject, accordingly.

[4] = 40-mg, Visit 1 (prior to dosing)
[5] = 80-mg, Visit 1 (prior to dosing)
[6] = 80-mg, Visit 8 (after 6-day dose escalation)
[7] = 160-mg, Visit 8 (after 6-day dose escalation)

O=NO [sodium nitrite]
ECG Heart Rate [1, 4]: 71.4 +/− 12.7 beats/minute | QTcB interval [1, 4]: 415.9 ± 49.0 ms | QTcF interval [1, 4]: 404.8 ± 44.9 ms | ECG Heart Rate ([1]; 40-mg, Visit 5 (Day 28)): 72.2 +/− 14.8 beats/minute | QTcB interval ([1]; 40-mg, Visit 5 (Day 28)): 430.1 ± 34.8 ms | QTcF interval ([1]; 40-mg, Visit 5 (Day 28)): 417.7 ± 24.0 ms | ECG Heart Rate [1, 5]: 62.7 +/− 10.7 beats/minute | QTcB interval [1, 5]: 422.3 ± 34.0 ms | QTcF interval [1, 5]: 419.9 ± 30.5 ms | ECG Heart Rate ([1]; 80-mg, Visit 5 (Day 28)): 65.5 +/− 11.9 beats/minute | QTcB interval ([1]; 80-mg, Visit 5 (Day 28)): 411.6 ± 49.7 ms | QTcF interval ([1]; 80-mg, Visit 5 (Day 28)): 406.2 ± 46.2 ms | ECG Heart Rate [1, 6]: 74.3 +/− 10.0 beats/minute | QTcB interval [1, 6]: 423.2 ± 4.03 ms | QTcF interval [1, 6]: 409.5 ± 34.3 ms | ECG Heart Rate [1, 7]: 64.7 +/− 10.0 beats/minute | QTcB interval [1, 7]: 427.7 ± 31.9 ms | QTcF interval [1, 7]: 422.8 ± 27.9 ms | Subjects who completed the study ([2]; 40 mg, n = 19): 17 (89.5%) | Subjects who withdrew prior to completion ([2]; 40 mg, n = 19): 2 (10.5%) | Withdrawal: Adverse Event ([2]; 40 mg, n = 19): 1 (5.3%) | Withdrawal: Met withdrawal-new hypotension ([2]; 40 mg, n = 19): 0 (0.0%) | Withdrawal: Subject Request-lack of energy ([2]; 40 mg, n = 19): 1 (5.3%) | Withdrawal: Subject request- no benefit ([2]; 40 mg, n = 19): 0 (0.0%) | Withdrawal: Subject request-refused to continue ([2]; 40 mg, n = 19): 0 (0.0%) | Subjects who completed the study ([2]; 80 mg, n = 18): 15 (83.3%) | Subjects who withdrew prior to completion ([2]; 80 mg, n = 18): 3 (16.7%) | Withdrawal: Adverse Event ([2]; 80 mg, n = 18): 2 (11.1%) | Withdrawal: Met withdrawal-new hypotension ([2]; 80 mg, n = 18): 1 (5.6%) | Withdrawal: Subject Request-lack of energy ([2]; 80 mg, n = 18): 0 (0.0%) | Withdrawal: Subject request- no benefit ([2]; 80 mg, n = 18): 0 (0.0%) | Withdrawal: Subject request-refused to continue ([2]; 80 mg, n = 18): 0 (0.0%) | WIQ assessment in walking distance [3]: no change | WIQ stair climbing [3]: trend toward improvement | WIQ walking speed [3]: trend toward improvement | RAND 36 quality of life assessment ([3]; sentence names the 40 mg group): trend toward improvement
